The text below walks through data of publication PMC4604170 (PLoS ONE, 2015).

The subject of series [1] is Staphylococcus aureus ATCC29213. Briefly: Effectiveness of prophylaxis once the corneal MIC was achieved (inoculation after 16 days of drops). It is filed as in vivo, New Zealand White rabbits. As to conditions: inoculation after 16 days of vancomycin 1.4% drops 5 times/day; 3 rabbits with titanium film implant. How it is done: Following bacterial inoculation, development of infection was assessed clinically with SLP and AS-OCT imaging.

The conditions of series [2]: no data for the cornea; cited from earlier work. From the text: It may therefore bind to lectin-like proteins of the stromal extracellular matrix, reducing its bioavailability fur ...
Series [3] in a line: Corneal and aqueous humour vancomycin quantification by LC-MS. The settings on record: for Vancomycin in the aqueous humour: rabbit; for Vancomycin in the aqueous humour / Corneal vancomycin concentration / Aqueous humour vancomycin concentration: LC-MS; for Corneal vancomycin concentration / Aqueous humour vancomycin concentration: after 4 days of vancomycin 1.4% drops 5 times/day; for Period of drop instillation required to achieve MIC in the cornea: vancomycin 1.4% drops five times a day. It is filed as in vivo, New Zealand White rabbits. As for the experimental part: Prior to starting the antibiotic regimen, the cornea of the right eye had complete epithelial debridement following application of 20% alcohol for 60 seconds, whereas the epithelium of the left cornea was not debrided.
Aqueous humour samples (120–150 μL) were extracted with three equivalents of methanol (Merck, Darmstadt, Germany). The samples were shaken for 5 min at 1200 rpm (20°C) and centrifuged for 10 min at 16,000 g (4°C). The supernatants were transferred to fresh tubes and dried in a vacuum concentrator. Cornea samples were cut and ground with a pestle while frozen. They were next homogenized on ice with 300 μL of 3:1 methanol/water with 0.1% formic acid (Sigma Aldrich, St. Louis, MO, USA) for 1 min. The homogenates were then spun down briefly on a capsule centrifuge and supernatants transferred to fresh tubes. The residues were homogenized and spun down a second time. The extracts were combined and centrifuged for 10 min at 16,000 g (4°C). The supernatants were transferred to fresh tubes and dried in a vacuum concentrator. Samples were reconstituted in water (Ultrapure water, Millipore purification unit) and centrifuged for 5 min at 16,000 g (10°C) before transferring to autosampler vials for LC-MS/MS analysis.
Chromatographic separation was performed on a Waters 2695 Separations Module (Milford, MA, USA) with a Thermo Scientific Hypersil Gold C18 column (Whaltham, MA, USA) (2.1 × 50 mm, 3 μm). The mobile phase was A: 0.1% formic acid in water and B: 0.1% formic acid in acetonitrile. The gradient profile was 2% B at 0 min, 25% B at 6 min, 90% B from 6.5 to 8.5 min and 2% B from 9 to 13 min. The flow rate was 0.3 ml/min. The autosampler and column heater temperatures were maintained at 10 and 30°C, respectively. Detection was performed by an AB Sciex API 2000 triple quadrupole mass spectrometer (Concord, Canada) with an electrospray ionization source operating in the positive ionization mode. The ion source voltage was set to 5 kV.

On to `CN[C@H](CC(C)C)C(=O)N[C@H]1C(=O)N[C@@H](CC(N)=O)C(=O)N[C@H]2C(=O)N[C@H]3C(=O)N[C@H](C(=O)N[C@H](C(=O)O)c4cc(O)cc(O)c4-c4cc3ccc4O)[C@H](O)c3ccc(c(Cl)c3)Oc3cc2cc(c3O[C@@H]2O[C@H](CO)[C@@H](O)[C@H](O)[C@H]2O[C@H]2C[C@](C)(N)[C@H](O)[C@H](C)O2)Oc2ccc(cc2Cl)[C@H]1O` [vancomycin], for which, in series [1], the “Rabbits showing evidence of corneal infection by day 2 post-inoculation” value is 2 of the 3. Besides, the Binding to proteins result in series [2] is “moderate”. Moreover, the “Vancomycin in the aqueous humour” value in series [3] (after 2 days of vancomycin 1.4% drops 5 times/day) is “not detected”; in series [3] (day 10 of vancomycin 1.4% drops 5 times/day), “below the level of quantification”; in series [3] (day 16 of vancomycin 1.4% drops 5 times/day) it was “below the level of quantification”. Besides, the Corneal vancomycin concentration stood at 2.57 ± 0.40 µg/mL in series [3] (with epithelial removal (right eye, 20% alcohol 60 seconds), 3 rabbits, p = 0.115) and 1.36 ± 0.45 µg/mL in series [3] (without epithelial removal (left eye), 3 rabbits without implant). Moreover, the “Aqueous humour vancomycin concentration” value amounted to 0.43 ± 0.15 µg/mL in series [3] (with epithelial removal, p = 0.063) and 0.04 ± 0.005 µg/mL in series [3] (without epithelial removal). The “Period of drop instillation required to achieve MIC in the cornea” value in series [3] (100% compliance, epithelium not debrided) is 16 days; in series [3] (epithelium debrided), at most 4 days.
